Test results: patent publication US7919465B2, “Peptide mimotopes that inhibits interaction between a platelet receptor and a platelet receptor ligand” (priority 2006, dated 2011)
Where two headings read alike, the source gives them in different places. Non-standard residues stand in square brackets, D forms with d. No end group written: not given here.

Experiments:
GPIb-vWf interaction = biological target: T1, GPIb-vWf interaction (Homo sapiens, UniProt P07359); assay: Flow cytometry inhibition of vWf binding to ristocetin-activated platelets in PRP; assay type: cell-based
T1 construct: Platelet rich plasma (PRP) was prepared from whole blood by centrifugation; endogenous in cells
Description: (§1) In order to prepare human platelets for testing, as approved by Canadian Blood Services' Ethics Board, samples of whole blood were drawn from healthy, consenting donors into 2.7-4.0 mL citrated tubes (BD, USA). Platelet rich plasma (PRP) was prepared from whole blood by centrifugation in a Beckman (CS-6R) bench-top centrifuge (r=203.57 mm, Beckman Coulter, USA) 164×g for 15 minutes. PRP from a number of unrelated donors were evaluated on an Adiva 120 Hematology Analyzer (Bayer, Canada) and standardized to a concentration of 300×10^9 platelets/L in HEPES buffered saline (HBS, 10 mM HEPES, 150 mM NaCl, pH 7.4).
Thereafter the samples were diluted and fixed with 1.0 mL 0.2% formolsaline (0.2% formaldehyde, 150 mM NaCl, pH 7.20) before analysis on a FACS Canto flow cytometer (BD, USA).
The effect of native HPG, free peptides, and peptide-conjugated HPG on activated platelets using modifications of the above assay systems was also examined. Platelets were treated with either 5 μL 4.2 mg/mL ristocetin (Chrono-Log, USA) or 100 U thrombin (T6884, Sigma-Aldrich, Canada) with 5 μL GPRP fibrin inhibitor (G5779, Sigma-Aldrich, Canada) dissolved in HBS. […] Controls included incubation with mouse IgG-FITC/IgG-PE (Beckman-Coulter, Canada) of the same isotype, and/or omitting the conjugate.

[1] = test system: CD62/P-selectin on platelet surfaces; assay: Flow cytometry of surface CD62 expression on platelets; assay type: cell-based, human; settings: for Surface CD62 Expression, Activated Platelets: thrombin-activated platelets
Description: as §1
(§2) 40 μL aliquots of HBS were mixed with 5 μL PRP and 5 μL of the material to be tested: 500 kDa native HPG; free peptides; or peptide-conjugated HPG at 1.0×10^−3 M to 1.0×10^−9 M. After 40 minutes of incubation at ambient temperature, 5 μL 0.01 mg/mL FITC-conjugated polyclonal sheep anti-human vWf IgG (Abcam, USA) or 5 μL of 2 mg/mL PE-conjugated monoclonal mouse anti-human CD62 IgG (Beckman-Coulter, Canada) was added and incubation was continued in the dark for 30 min. Thereafter the samples were diluted and fixed with 1.0 mL 0.2% formolsaline (0.2% formaldehyde, 150 mM NaCl, pH 7.20) before analysis on a FACS Canto flow cytometer (BD, USA).
The effect of native HPG, free peptides, and peptide-conjugated HPG on activated platelets using modifications of the above assay systems was also examined. Platelets were treated with either 5 μL 4.2 mg/mL ristocetin (Chrono-Log, USA) or 100 U thrombin (T6884, Sigma-Aldrich, Canada) with 5 μL GPRP fibrin inhibitor (G5779, Sigma-Aldrich, Canada) dissolved in HBS. This was done to determine whether the peptides and the peptide-conjugates can mitigate vWf and thrombin mediated platelet effects. Controls included incubation with mouse IgG-FITC/IgG-PE (Beckman-Coulter, Canada) of the same isotype, and/or omitting the conjugate. As a result, native HPG, free peptides, and peptide-conjugated HPG neither did they increase vWf binding to resting platelets (Table 5) or they could trigger platelet activation. […]

[2] = test system: vWf binding to resting platelets; assay: Flow cytometry of vWf binding to resting platelets; assay type: cell-based, human
Description: as §1, §2
(§3) The effect of native HPG, free peptides, and peptide-conjugated HPG on activated platelets using modifications of the above assay systems was also examined. Platelets were treated with either 5 μL 4.2 mg/mL ristocetin (Chrono-Log, USA) or 100 U thrombin (T6884, Sigma-Aldrich, Canada) with 5 μL GPRP fibrin inhibitor (G5779, Sigma-Aldrich, Canada) dissolved in HBS. This was done to determine whether the peptides and the peptide-conjugates can mitigate vWf and thrombin mediated platelet effects. Controls included incubation with mouse IgG-FITC/IgG-PE (Beckman-Coulter, Canada) of the same isotype, and/or omitting the conjugate. As a result, native HPG, free peptides, and peptide-conjugated HPG neither did they increase vWf binding to resting platelets (Table 5) or they could trigger platelet activation.

platelets = assay: Aggregometry, % aggregation on activation; assay type: cell-based, human; parameters: concentration or dose not given beside the values; settings: ristocetin activation
Description: as §1, §3
The inhibition of platelet agglutination by vWf was observed both by light microscopy and lumiaggregometry (Table 5). No clumping was seen when resting platelets were incubated with free peptides, native HPG, or peptide-conjugated HPG.

purified vWf = purified vWf (Homo sapiens, UniProt P04275); assay: Random D-peptide array on cellulose membrane probed with purified vWf; assay type: binding; settings: detected by HRP anti-human-vWf IgG
Excerpt: Random D-amino acid peptides (15 mer) were synthesized and probed with vWf to detect random sequences capable of binding vWf.
Random peptide arrays of 1120 peptides made of D-amino acids were synthesized on a cellulose membrane using an AutoSpot ASP 222 peptide synthesizer (ABiMED, Langenfeld, Germany). Resulting replicate libraries of 15-mer sequences were probed for vWf binding function by exposing the membranes to purified vWf after blocking with skim milk to prevent non-specific binding of horseradish peroxidase labelled goat anti-human-vWf IgG. The chemiluminescent substrate from the Amersham Pharmacia ECL kit detected positive spots that were recorded on photographic film. Negative controls consisted of probing the membranes with the antibodies without prior exposure of the membrane to purified vWf.
(§4) Peptides on random 15-mer peptide arrays that were built of D-amino acids were selected on the basis of their ability to bind to vWf. Only four positive sequences were identified: D-pep1—[…] (SEQ ID NO:4); D-pep2—[…] (SEQ ID NO:5); D-pep3—[…] (SEQ ID NO:6); and D-pep4—[…] (SEQ ID NO:7). D-pep2 (SEQ ID NO:5), D-pep3 (SEQ ID NO:6) and D-pep4 (SEQ ID NO:7) were synthesized for laboratory experimentation. D-pep3 (SEQ ID NO:6), 10 mg, was synthesized by UBC's Peptide Proteomic Centre and was solubilized in Hepes-saline buffer, pH 7.4 and used at 0.1-0.5 mg/mL. Fresh washed platelets ([…]) in Hepes buffer were added and agglutination was initiated by 1.25 mg/mL ristocetin (Sigma). Agglutination times and levels were monitored both microscopically and on an aggregometer (ChronoLog) as described by the manufacturer.

[3] = test system: GPIb-vWf-mediated platelet agglutination; assay: Inhibition of ristocetin-mediated agglutination of washed platelets (microscopy, aggregometer); assay type: cell-based, human; settings: for % agglutination (aggregometry): at 10 minutes, washed platelets, ristocetin
Description: as §4

[4] = expressed as peptide concentration
[5] = inhibition of platelet-vWf binding, molar concentration of peptide or conjugate
[6] = inhibition of platelet-vWf binding, molar concentration of peptide or conjugate, read-out: Ic50

Substance | Surface CD62 Expression, Resting Platelets [1] | Surface CD62 Expression, Activated Platelets [1] | vWf Binding, Resting Platelets [2] | Aggregometry % Aggregation on Activation (platelets) | Peptide Concentration at Ic50 (M) (GPIb-vWf interaction; [4]) | Ic50 (M) (GPIb-vWf interaction; [5]) | vWf binding on random 15-mer D-peptide array (purified vWf) | also measured
CGGGGGGRDKLGIYAHS [LR-pep] | 19 ± 2 | 70 ± 5″ | 25 ± 12′ | 5 ± 5% | – | – | – | IC50 (GPIb-vWf interaction): 34 µM
D10: HPG 500 kDa conjugate with about 10 D-peptides per HPG molecule ([dC]GGGGGG[dR][dD][dK][dL]G[dI][dY][dA][dH][dS]; also: coupled through vinyl sulfone to 500 kDa hyperbranched polyglycerol (HPG), about 10 peptides per HPG) | 14 ± 7 | 70 ± 6″ | 24 ± 2′ | 82 ± 5% | No activity | No activity | – | –
D100: HPG 500 kDa conjugate with about 100 D-peptides per HPG molecule ([dC]GGGGGG[dR][dD][dK][dL]G[dI][dY][dA][dH][dS]; also: coupled through vinyl sulfone to 500 kDa hyperbranched polyglycerol (HPG), about 100 peptides per HPG) | 18 ± 1 | 72 ± 1″ | 26 ± 3′ | 73 ± 5% | No activity | No activity | – | –
D-CGGGGGGRDKLGIYAHS [D-pep] | 18 ± 2 | 68 ± 10″ | 14 ± 8′ | 80 ± 5% | No activity | No activity | – | –
D-CGGGGGGRDKLGIYAHS [DR-pep] | 27 ± 18 | 72 ± 3″ | 28 ± 3′ | 78 ± 5% | No activity | No activity | – | –
DSCPRDWDNNFLFFE ([dD][dS][dC][dP][dR][dD][dW][dD][dN][dN][dF][dL][dF][dF][dE]) [D-pep4] | – | – | – | – | – | – | positive | –
L10: HPG 500 kDa conjugate with about 10 L-peptides per HPG molecule (CGGGGGGSHAYIGLKDR; also: conjugated to HPG 500 kDa, about 10 L-peptides per HPG molecule, site not given here) | 17 ± 1 | 73 ± 5″ | 22 ± 5′ | – | – | – | – | inhibition of vWf binding to platelets (in words) (GPIb-vWf interaction): effective inhibitors; IC50 (GPIb-vWf interaction; expressed as peptide concentration, read-out: Peptide Concentration at Ic50): 67 µM; IC50 (GPIb-vWf interaction; [6]): 6.7 µM
LR10: HPG conjugate with 10 L-retro peptides per HPG molecule (CGGGGGGRDKLGIYAHS; also: conjugated to HPG, 10 L-retro peptides per HPG molecule, site not given here) | 17 ± 2 | 72 ± 4″ | 24 ± 2′ | – | – | – | – | IC50 (GPIb-vWf interaction; [6]): 4.1 µM
LR100: HPG 500 kDa conjugate with about 100 L-retro peptides per HPG molecule (CGGGGGGRDKLGIYAHS; also: conjugated to HPG 500 kDa, about 100 L-retro peptides per HPG molecule, site not given here) | 18 ± 1 | 73 ± 2″ | 22 ± 2′ | – | – | – | – | inhibition of vWf binding to platelets (in words) (GPIb-vWf interaction): effective inhibitors; IC50 (GPIb-vWf interaction; [6]): 0.49 µM
RSARMQVCWNAFKNR ([dR][dS][dA][dR][dM][dQ][dV][dC][dW][dN][dA][dF][dK][dN][dR]) [D-pep3] | – | – | – | – | – | – | positive | % agglutination (aggregometry) ([3]; 0.1 mg/mL): 69%; % agglutination (aggregometry) ([3]; 0.25 mg/mL): 28%; % agglutination (aggregometry) ([3]; 0.5 mg/mL): 13%; ristocetin-mediated platelet agglutination by microscopy ([3]; 100-fold excess of peptide based on plasma vWf content, controls agglutinated within 5 minutes): prevented visible agglutination at 20 minutes
VSRQNGKQYWAIKEG ([dV][dS][dR][dQ][dN]G[dK][dQ][dY][dW][dA][dI][dK][dE]G) [D-pep1] | – | – | – | – | – | – | positive | –
WQNEGTHVLSRCYEC ([dW][dQ][dN][dE]G[dT][dH][dV][dL][dS][dR][dC][dY][dE][dC]; cysteine pairing not given here) [D-pep2] | – | – | – | – | – | – | positive | –
bovine serum albumin [reference compound] | – | – | – | – | – | – | – | % agglutination (aggregometry) ([3]; 0.5 mg/mL): 55%
